Measured values taken from patent US11944605B2, “Rapamycin analogs and uses thereof” (Janssen Pharmaceutica NV, priority 2018, dated 2024).

What follows are compounds tested on pS6K1 (p-p70 S6 Kinase (Thr389)) in MCF-7 cells (assay: AlphaLISA Ultra pS6K1 Assay). Settings: Homo sapiens, 1.5 h; MCF7 cells, 90 min.
Assay type: cell-based
Description: AlphaLISA Ultra pS6K1 Assay
1. Seed MCF-7 cells in Corning 3701 plate and incubate for 20˜24 hour. 12,000˜16,000 cells will be seeded in 36 μL medium per well.
2. Change the culture medium with fresh medium and incubate for another 2 hours.
3. Add 12 μL (4×) compounds into the cell plate by HAMILTON. Final DMSO concentration is 0.5%. Incubate for 90 minutes.
4. Aspirate […] by HAMILTON, 10 μL rest per well.
5. Add 10 μL 2× lysis buffer using HAMILTON; total volume in wells is 20 μL. Allow cells to shake for 30 min. Cover plate by plastic foil and store plate at −80° C. up to analysis.
6. Thaw cell lysate at RT and transfer 10 μL lysate to assay plate (Optiplate-384).
7. Add 5 μL acceptor beads into assay plate and incubation for 2 hours
8. Add 5 μL donor beads and incubation for 2 hours
9. Count the plate by EnSpire Multimode Plate Reader

Compared with `CO[C@@H]1C[C@H](C[C@@H](C)[C@@H]2CC(=O)[C@H](C)/C=C(\C)[C@@H](O)[C@@H](OC)C(=O)[C@H](C)C[C@H](C)/C=C/C=C/C=C(\C)[C@H](OC[C@@H](O)[C@@H](O)[C@H](O)[C@H](O)CO)C[C@@H]3CC[C@@H](C)[C@@](O)(O3)C(=O)C(=O)N3CCCC[C@H]3C(=O)O2)CC[C@H]1O` [Compound I-57], `CO[C@@H]1C[C@H](C[C@@H](C)[C@@H]2CC(=O)[C@H](C)/C=C(\C)[C@@H](O)[C@@H](OC)C(=O)[C@H](C)C[C@H](C)/C=C/C=C/C=C(\C)[C@@H](OC[C@@H](O)[C@@H](O)[C@H](O)[C@H](O)CO)C[C@@H]3CC[C@@H](C)[C@@](O)(O3)C(=O)C(=O)N3CCCC[C@H]3C(=O)O2)CC[C@H]1O` [Compound I-58] is higher in IC50: < 0.1 nM for the first, 0.1 to 1 nM for the second.

First: CO[C@@H]1C[C@H](C[C@@H](C)[C@@H]2CC(=O)[C@H](C)/C=C(\C)[C@@H](O)[C@@H](OC)C(=O)[C@H](C)C[C@H](C)/C=C/C=C/C=C(\C)C(OC[C@@H](O)[C@@H](O)[C@H](O)[C@H](O)CO)C[C@@H]3CC[C@@H](C)[C@@](O)(O3)C(=O)C(=O)N3CCCC[C@H]3C(=O)O2)CC[C@H]1O (some centres unmarked) [Compound I-63]
Second: CCCCCCOC1C[C@@H]2CC[C@@H](C)[C@@](O)(O2)C(=O)C(=O)N2CCCC[C@H]2C(=O)O[C@H]([C@H](C)C[C@@H]2CC[C@@H](O)[C@H](OC)C2)CC(=O)[C@H](C)/C=C(\C)[C@@H](O)[C@@H](OC)C(=O)[C@H](C)C[C@H](C)/C=C/C=C/C=C/1C (some centres unmarked) [Compound I-103]
The IC50 of the first is higher: ≥ 100 nM for the first, 0.1 to 1 nM for the second.

Compared with `CO[C@@H]1C[C@H](C[C@@H](C)[C@@H]2CC(=O)[C@H](C)/C=C(\C)[C@@H](O)[C@@H](OC)C(=O)[C@H](C)C[C@H](C)/C=C/C=C/C=C(\C)[C@H](OCCOCC(COCCO)COCCO)C[C@@H]3CC[C@@H](C)[C@@](O)(O3)C(=O)C(=O)N3CCCC[C@H]3C(=O)O2)CC[C@H]1O` [Compound I-64], `CO[C@@H]1C[C@H](C[C@@H](C)[C@@H]2CC(=O)[C@H](C)/C=C(\C)[C@@H](O)[C@@H](OC)C(=O)[C@H](C)C[C@H](C)/C=C/C=C/C=C(\C)[C@@H](OCCOCC(COCCO)COCCO)C[C@@H]3CC[C@@H](C)[C@@](O)(O3)C(=O)C(=O)N3CCCC[C@H]3C(=O)O2)CC[C@H]1O` [Compound I-65] is lower in IC50: 1 to 10 nM for the first, 0.1 to 1 nM for the second. The second is the more potent here.

First: CO[C@@H]1C[C@H](C[C@@H](C)[C@@H]2CC(=O)[C@H](C)/C=C(\C)[C@@H](O)[C@@H](OC)C(=O)[C@H](C)C[C@H](C)/C=C/C=C/C=C(\C)[C@H](OCCOCCO)C[C@@H]3CC[C@@H](C)[C@@](O)(O3)C(=O)C(=O)N3CCCC[C@H]3C(=O)O2)CC[C@H]1OCCOCCO [Compound I-66]
Second: CO[C@@H]1C[C@H](C[C@@H](C)[C@@H]2CC(=O)[C@H](C)/C=C(\C)[C@@H](O)[C@@H](OC)C(=O)[C@H](C)C[C@H](C)/C=C/C=C/C=C(\C)[C@@H](OCCOCCO)C[C@@H]3CC[C@@H](C)[C@@](O)(O3)C(=O)C(=O)N3CCCC[C@H]3C(=O)O2)CC[C@H]1OCCOCCO [Compound I-67]
The IC50 of the first is higher: 1 to 10 nM for the first, 0.1 to 1 nM for the second. The second is the more potent here.

`CO[C@@H]1C[C@H](C[C@@H](C)[C@@H]2CC(=O)[C@H](C)/C=C(\C)[C@@H](O)[C@@H](OC)C(=O)[C@H](C)C[C@H](C)/C=C/C=C/C=C(\C)[C@H](OCCOCCOCCO)C[C@@H]3CC[C@@H](C)[C@@](O)(O3)C(=O)C(=O)N3CCCC[C@H]3C(=O)O2)CC[C@H]1OCCOCCOCCO` [Compound I-72] and `CO[C@@H]1C[C@H](C[C@@H](C)[C@@H]2CC(=O)[C@H](C)/C=C(\C)[C@@H](O)[C@@H](OC)C(=O)[C@H](C)C[C@H](C)/C=C/C=C/C=C(\C)[C@@H](OCCOCCOCCO)C[C@@H]3CC[C@@H](C)[C@@](O)(O3)C(=O)C(=O)N3CCCC[C@H]3C(=O)O2)CC[C@H]1OCCOCCOCCO` [Compound I-73] fall in the same range of IC50: 1 to 10 nM for the first, 1 to 10 nM for the second.

First: CNC(=O)OCCO[C@@H]1C[C@@H]2CC[C@@H](C)[C@@](O)(O2)C(=O)C(=O)N2CCCC[C@H]2C(=O)O[C@H]([C@H](C)C[C@@H]2CC[C@@H](OCCO)[C@H](OC)C2)CC(=O)[C@H](C)/C=C(\C)[C@@H](O)[C@@H](OC)C(=O)[C@H](C)C[C@H](C)/C=C/C=C/C=C/1C [Compound I-74]
Second: CNC(=O)OCCO[C@H]1C[C@@H]2CC[C@@H](C)[C@@](O)(O2)C(=O)C(=O)N2CCCC[C@H]2C(=O)OC([C@H](C)CC2CC[C@@H](OCCO)[C@H](OC)C2)CC(=O)[C@H](C)/C=C(\C)[C@@H](O)[C@@H](OC)C(=O)[C@H](C)C[C@H](C)/C=C/C=C/C=C/1C (some centres unmarked) [Compound I-75]
The IC50 of the first is higher: 0.1 to 1 nM for the first, < 0.1 nM for the second. The second is the more potent here.

`CO[C@@H]1C[C@H](C[C@@H](C)[C@@H]2CC(=O)[C@H](C)/C=C(\C)[C@@H](O)[C@@H](OC)C(=O)[C@H](C)C[C@H](C)/C=C/C=C/C=C(\C)C(OCCOCCO)C[C@@H]3CC[C@@H](C)[C@@](O)(O3)C(=O)C(=O)N3CCCC[C@H]3C(=O)O2)CC[C@H]1OCCOCCO` (some centres unmarked) [Compound I-76] and `CO[C@@H]1C[C@H](C[C@@H](C)[C@@H]2CC(=O)[C@H](C)/C=C(\C)[C@@H](O)[C@@H](OC)C(=O)[C@H](C)C[C@H](C)/C=C/C=C/C=C(\C)C(OCCOCCOCCO)C[C@@H]3CC[C@@H](C)[C@@](O)(O3)C(=O)C(=O)N3CCCC[C@H]3C(=O)O2)CC[C@H]1OCCOCCOCCO` (some centres unmarked) [Compound I-78] fall in the same range of IC50: 1 to 10 nM for the first, 1 to 10 nM for the second.

First: CO[C@@H]1C[C@H](C[C@@H](C)[C@@H]2CC(=O)[C@H](C)/C=C(\C)[C@@H](O)[C@@H](OC)C(=O)[C@H](C)C[C@H](C)/C=C/C=C/C=C(\C)[C@H](OCCOCCOC(F)(F)C(F)(F)F)C[C@@H]3CC[C@@H](C)[C@@](O)(O3)C(=O)C(=O)N3CCCC[C@H]3C(=O)O2)CC[C@H]1OCCO [Compound I-79]
Second: CO[C@@H]1C[C@H](C[C@@H](C)[C@@H]2CC(=O)[C@H](C)/C=C(\C)[C@@H](O)[C@@H](OC)C(=O)[C@H](C)C[C@H](C)/C=C/C=C/C=C(\C)[C@@H](OCCOCCOC(F)(F)C(F)(F)F)C[C@@H]3CC[C@@H](C)[C@@](O)(O3)C(=O)C(=O)N3CCCC[C@H]3C(=O)O2)CC[C@H]1OCCO [Compound I-80]
The IC50 of the first is higher: 1 to 10 nM for the first, 0.1 to 1 nM for the second.

Compared with `CNC(=O)OCCOC1C[C@@H]2CC[C@@H](C)[C@@](O)(O2)C(=O)C(=O)N2CCCC[C@H]2C(=O)O[C@H]([C@H](C)C[C@@H]2CC[C@@H](OCCO)[C@H](OC)C2)CC(=O)[C@H](C)/C=C(\C)[C@@H](O)[C@@H](OC)C(=O)[C@H](C)C[C@H](C)/C=C/C=C/C=C/1C` (some centres unmarked) [Compound I-81], `CO[C@@H]1C[C@H](C[C@@H](C)[C@@H]2CC(=O)[C@H](C)/C=C(\C)[C@@H](O)[C@@H](OC)C(=O)[C@H](C)C[C@H](C)/C=C/C=C/C=C(\C)[C@H](OCCOCCOC(F)(F)F)C[C@@H]3CC[C@@H](C)[C@@](O)(O3)C(=O)C(=O)N3CCCC[C@H]3C(=O)O2)CC[C@H]1OCCO` [Compound I-82] is lower in IC50: 1 to 10 nM for the first, 0.1 to 1 nM for the second.

`CO[C@@H]1C[C@H](C[C@@H](C)[C@@H]2CC(=O)[C@H](C)/C=C(\C)[C@@H](O)[C@@H](OC)C(=O)[C@H](C)C[C@H](C)/C=C/C=C/C=C(\C)C(OCCOCCOCC(F)(F)F)C[C@@H]3CC[C@@H](C)[C@@](O)(O3)C(=O)C(=O)N3CCCC[C@H]3C(=O)O2)CC[C@H]1OCCO` (some centres unmarked) [Compound I-86] and `CO[C@@H]1C[C@H](C[C@@H](C)[C@@H]2CC(=O)[C@H](C)/C=C(\C)[C@@H](O)[C@@H](OC)C(=O)[C@H](C)C[C@H](C)/C=C/C=C/C=C(\C)C(OCCOCCOC(F)(F)F)C[C@@H]3CC[C@@H](C)[C@@](O)(O3)C(=O)C(=O)N3CCCC[C@H]3C(=O)O2)CC[C@H]1OCCO` (some centres unmarked) [Compound I-88] cannot be ordered by IC50: < 0.1 nM for the first, < 0.1 nM for the second.

Compared with `CO[C@@H]1C[C@H](C[C@@H](C)[C@@H]2CC(=O)[C@H](C)/C=C(\C)[C@@H](O)[C@@H](OC)C(=O)[C@H](C)C[C@H](C)/C=C/C=C/C=C(\C)C(OCCOCCOC(F)(F)C(F)(F)F)C[C@@H]3CC[C@@H](C)[C@@](O)(O3)C(=O)C(=O)N3CCCC[C@H]3C(=O)O2)CC[C@H]1OCCO` (some centres unmarked) [Compound I-87], `COCCOCCO[C@@H]1C[C@@H]2CC[C@@H](C)[C@@](O)(O2)C(=O)C(=O)N2CCCC[C@H]2C(=O)O[C@H]([C@H](C)C[C@@H]2CC[C@@H](OCCOC)[C@H](OC)C2)CC(=O)[C@H](C)/C=C(\C)[C@@H](O)[C@@H](OC)C(=O)[C@H](C)C[C@H](C)/C=C/C=C/C=C/1C` [Compound I-89] is higher in IC50: < 0.1 nM for the first, 1 to 10 nM for the second. The first is the more potent here.

First: CO[C@@H]1C[C@H](C[C@@H](C)[C@@H]2CC(=O)[C@H](C)/C=C(\C)[C@@H](O)[C@@H](OC)C(=O)[C@H](C)C[C@H](C)/C=C/C=C/C=C(\C)C(OCCOCCOCC(F)(F)F)C[C@@H]3CC[C@@H](C)[C@@](O)(O3)C(=O)C(=O)N3CCCC[C@H]3C(=O)O2)CC[C@H]1O (some centres unmarked) [Compound I-91]
Second: CO[C@@H]1C[C@H](C[C@@H](C)[C@@H]2CC(=O)[C@H](C)/C=C(\C)[C@@H](O)[C@@H](OC)C(=O)[C@H](C)C[C@H](C)/C=C/C=C/C=C(\C)C(OCCOCC(COCCO)COCCO)C[C@@H]3CC[C@@H](C)[C@@](O)(O3)C(=O)C(=O)N3CCCC[C@H]3C(=O)O2)CC[C@H]1O (some centres unmarked) [Compound I-100]
The IC50 of the first is lower: < 0.1 nM for the first, 1 to 10 nM for the second.

First: COCCOCCOC1C[C@@H]2CC[C@@H](C)[C@@](O)(O2)C(=O)C(=O)N2CCCC[C@H]2C(=O)OC([C@H](C)CC2CC[C@@H](OCCOC)[C@H](OC)C2)CC(=O)[C@H](C)/C=C(\C)[C@@H](O)[C@@H](OC)C(=O)[C@H](C)C[C@H](C)/C=C/C=C/C=C/1C (some centres unmarked) [Compound I-92]
Second: CO[C@@H]1C[C@H](C[C@@H](C)[C@@H]2CC(=O)[C@H](C)/C=C(\C)[C@@H](O)[C@@H](OC)C(=O)[C@H](C)C[C@H](C)/C=C/C=C/C=C(\C)C(OCCOCCOCCOCCOCCOCCOCCOCCOCCOCCO)C[C@@H]3CC[C@@H](C)[C@@](O)(O3)C(=O)C(=O)N3CCCC[C@H]3C(=O)O2)CC[C@H]1O (some centres unmarked) [Compound I-98]
The IC50 of the first is lower: 0.1 to 1 nM for the first, 1 to 10 nM for the second.
